# Data published in US20150150995A1, “CONJUGATED ANTI-MICROBIAL COMPOUNDS AND CONJUGATED ANTI-CANCER COMPOUNDS AND USES THEREOF” (PONO CORPORATION, priority 2012, published 2015).
# Where a name gives a salt, the structure may show the parent alone. Read-outs that look alike come from different tables or passages of the source.
# Legend:
# [1] = tested on: carbapenem-resistant enterobacteriaceae (CRE); assay: Minimum inhibitory concentration (MIC) test against CRE; type: cell-based; conditions: drug resistant gram negative bacterium
# Protocol: (§1) This complex can be easily compared to the cefazolin sodium salt by testing the minimum inhibitory concentration (MIC). Initial tests were performed against a drug resistant gram negative bacterium; carbapenem-resistant enterobacteriaceae (CRE) and a drug resistant gram positive bacterium; methicillin-resistant staphylococcus aureus (MRSA). […] By transforming the cefazolin sodium salt into a silver complex, it changes the antibiotic that CRE and MRSA are resistant to, to a compound that CRE and MRSA are susceptible to. Thus, in several embodiments, the compositions provided for herein lead to a heretofore unseen efficacy against drug-resistant microorganisms.
# [2] = tested on: methicillin-resistant staphylococcus aureus (MRSA); assay: Minimum inhibitory concentration (MIC) test against MRSA; type: cell-based
# Protocol: as §1
Compound,MIC ([1]; read-out: MIC) [µg/mL],MIC ([2]; Staphylococcus aureus) [µg/mL],MIC [1] [µg/mL],MIC ([2]; drug resistant gram positive bacterium) [µg/mL]
"Cc1nnc(SCC2=C(C(=O)O)N3C(=O)[C@@H](NC(=O)Cn4cnnn4)[C@H]3SC2)s1 [cefazolin sodium salt, Cefazolin sodium salt]",> 256,256,–,–
cefazolin silver complex,–,–,4,4
